Test results published in patent US11059808B2, “Substituted phenylpyrrolecarboxamides with therapeutic activity in HIV” (New York Blood Center, Inc., priority 2014, dated 2021).
Like-named read-outs stand apart in the source and are kept apart here.

Columns and labels:
[1] = system: HIV-1 pseudovirus pseudotyped with HXB2 Env; experiment: microbe, parasite or virus in culture; type: cell-based; details: single cycle assay, TZM-bl cells infected with HIV-1 pseudovirus pseudotyped with HXB2 Env;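 note: endpoint is IC50 for inhibition of pseudovirus infection of TZM-bl cells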
[2] = Cytotoxicity in TZM-bl cells (XTT); type: cell-based; details: human, XTT, 3 days
Procedure: (§1) The cytotoxicity of test compounds in TZM-bl cells was also measured by the XTT method described previously^7. […] The soluble intracellular formazan was quantitated colorimetrically at 450 nm 4 h later. The percent of cytotoxicity and the CC50 values were calculated as above. (See Table 4)

[3] = system: panel of HIV-1 ENV-pseudoviruses (subtype A, A/D, A2/D, A/E, A/G, B, C and D); experiment: microbe, parasite or virus in culture; type: cell-based
TZM-bl cells = experiment: Cytotoxicity in TZM-bl cells (XTT); type: cell-based; details: for CC50: XTT, 3 days
Procedure: as §1

HIV-1 Integrase = molecular target: T1, HIV-1 Integrase (Human immunodeficiency virus type 1 group M subtype B, UniProt P04585); experiment: HIV-1 Integrase Assay (ExpressBio kit); type: biochemical
T1 construct: HIV-1 Integrase Assay Kit from ExpressBio; purchased ExpressBio (Thurnmont, Md.)
Procedure: HIV-1 Integrase was performed as per the protocol in the HIV-1 Integrase Assay Kit from ExpressBio (Thurnmont, Md.). (See Table 3)

MT-2 cells = experiment: Cytotoxicity in MT-2 cells (XTT); type: cell-based; details: 4 days
Procedure: Cytotoxicity of test compounds in MT-2 cells was measured a by colorimetric method using XTT [(sodium 3′-(1-(phenylamino)-carbonyl)-3,4-tetrazolium-bis(4-methoxy-6-nitro) bezenesulfonic acid hydrate)] (PolySciences) as previously described^7. Briefly, 100 μl of a test compound at graded concentrations was added to an equal volume of cells (1×10^5 cells/ml) in 96 well plates followed by incubation at 37° C. for 4 days, which ran parallel to the neutralization assay in MT-2. Following the addition of XTT the soluble intracellular formazan was quantitated colorimetrically at 450 nm 4 h later. […] (See Table 4)

[4] = system: lab-adapted and primary HIV-1 isolates; experiment: Multi-cycle infection assay in PBMC (p24 ELISA)
Procedure: PBMCs were isolated from the blood of healthy donors at the New York Blood Center by standard density gradient centrifugation using Histopaque-1077 (Sigma-Aldrich). The cells were cultured at 37° C. for 2 hr. […] The PHA-stimulated cells (5×10^4 cells/well) were infected with lab-adapted and primary HIV-1 isolates at 500 TCID50 (0.01 MOI) in the absence or presence of inhibitors at graded concentrations. Culture media were replaced every 3 days with fresh media. The supernatants were collected 7 days post-infection and tested for p24 antigen by ELISA. The percent inhibition of p24 production and IC50 values were calculated by the GraphPad Prism software.

[5] = system: laboratory-adapted HIV-1 strains; experiment: Multi-cycle infection assay in MT-2 cells (p24 ELISA); details: read-out: IC50 (μm)
PBMC = experiment: Cytotoxicity in PBMC (XTT); type: cell-based; details: 7 days
Procedure: For the PBMC toxicity assay we used 5×10^5 cells/ml and the cytotoxicity of the compounds was measured after 7 days of incubation as previously reported^8. Following the addition of XTT the soluble intracellular formazan was quantitated colorimetrically at 450 nm 4 h later. The percent of cytotoxicity and the CC50 values were calculated as above. (See Table 4)

[6] = system: cell-to-cell fusion mediated by HIV-1 (HIV-1HXB2 Env); type: cell-based; details: Cell-Cell fusion Assay
Procedure: To assess the ability of NBD-compounds to block cell-to-cell fusion mediated by HIV-1 we performed cell fusion assay as previously described 3^1-3 with some modifications. […] Following fusion of the two cell lines Tat induce the expression of β-gal enzyme. […] The percent inhibition and the IC50 values were calculated using the GraphPad Prism software.

[7] = Human immunodeficiency virus 1, HXB2, TZM-bl
[8] = Human immunodeficiency virus 1, TZM-bl, read-out: IC50 (μM) ± S.D., subtype A2/D, NIH # 11905, ENV QG393.60M.ENV.A1
[9] = read-out: IC50 (μm), laboratory strain BaL, subtype B, co-receptor R5
[10] = read-out: IC50 (μm), laboratory strain SF162, subtype B, co-receptor R5
[11] = read-out: IC50 (μm), primary isolate 92US657, subtype B, co-receptor R5
[12] = read-out: IC50 (μm), primary isolate 93MW959, subtype C, co-receptor R5
[13] = read-out: IC50 (μm), primary isolate RU570, subtype G, co-receptor R5
[14] = RT-resistant isolate AZT-R, subtype B, MT-2, co-receptor X4
[15] = fusion resistant isolate pNL4-3 gp41(36G) V38E, N42S, subtype B, MT-2, co-receptor X4
[16] = laboratory strain MN, subtype B, MT-2, co-receptor X4
[17] = laboratory strain SF2, subtype B, MT-2, co-receptor R5X4
[18] = protease resistant isolate HIV-1RF/L-323-12-3, subtype B, MT-2, co-receptor X4

With Cc1ccc(-c2ccc(C(=O)NC(c3ncc(CO)s3)C(C)(C)N)[nH]2)cc1F (single isomer, unassigned) [Compound 125] the IC50 [1, 7] was 0.63 ± 0.03 µM and the CC50 at 3 days [2] was 32.5 ± 0.3 µM.
CNCCC(NC(=O)c1ccc(-c2ccc(C)c(F)c2)[nH]1)c1nc(C)c(CO)s1 (single isomer, unassigned) [Compound 78] showed an IC50 [1] of 10.4 ± 0.2 µM and a CC50 at 3 days [2] of 36.4 ± 2.6 µM.
With NCC(NC(=O)c1ccc(-c2cc(F)c(Cl)c(F)c2)[nH]1)c1ncc(CO)s1 (single isomer, unassigned) [Compound 120] the IC50 [3, 8] was 1 ± 0.06 µM and the CC50 (TZM-bl cells) was 31.4 ± 1.1 µM.
Cc1nc(C(CCN(C)C)NC(=O)c2ccc(-c3ccc(Cl)c(F)c3)[nH]2)sc1CO (single isomer, unassigned) [Compound 74] gave an IC50 [1] of 4.6 ± 0.2 µM and a CC50 at 3 days [2] of 22 ± 1 µM.
With Cc1nc(C(CN)NC(=O)c2ccc(-c3ccc(F)c(F)c3)[nH]2)sc1CO (single isomer, unassigned) [Compound 121] the IC50 [1, 7] was 3.4 ± 0.7 µM, the CC50 at 3 days [2] was over 51 µM and the “percentage in brackets after CC50 >51” value (TZM-bl cells; printed "(30%)" without explanation, presumably toxicity at 51 μM) was 30%.
For COc1ccc(-c2ccc(C(=O)NC(CN)c3ncc(CO)s3)[nH]2)cc1OC (single isomer, unassigned) [Compound 129], the IC50 [1, 7] was over 74.5 µM and the CC50 at 3 days [2] was over 74.5 µM.
Work on COc1cc(C(=O)NC(CN)c2nc(C)c(CO)s2)[nH]c1-c1ccc(Cl)cc1 (single isomer, unassigned) [Compound 105] yielded an IC50 [1, 7] of 8.8 ± 0.5 µM and a CC50 at 3 days [2] of 16.7 ± 0.1 µM.
Compound CNCCC(NC(=O)c1ccc(-c2ccc(Cl)cc2)[nH]1)c1nc(C)c(CO)s1 (single isomer, unassigned) [Compound 82] has an IC50 [1] of 18.6 ± 1.5 µM and a CC50 at 3 days [2] of 23 ± 1.2 µM.
Cc1nc(C(CCN)NC(=O)c2ccc(-c3ccc(Cl)cc3)[nH]2)sc1CO (single isomer, unassigned) [Compound 88] showed an IC50 [1] of 18.7 ± 0.7 µM and a CC50 at 3 days [2] of 41 ± 1.1 µM.
Work on Cc1nc(C(NC(=O)c2ccc(-c3ccc(Cl)cc3)[nH]2)C2CCCCN2)sc1CO (single isomer, unassigned) [Compound 17] yielded an IC50 [3, 8] of 0.41 ± 0.2 µM and an IC50 (HIV-1 Integrase) of over 100 µM.
With CC(C)(N)C(NC(=O)c1ccc(-c2ccc(Cl)c(F)c2)[nH]1)c1ncc(CO)s1 (single isomer, unassigned) [Compound 123] the IC50 [1, 7] was 0.56 ± 0.03 µM and the CC50 at 3 days [2] was 14.5 ± 2 µM.
In the case of Cc1nc(C(CN)NC(=O)c2ccc(-c3ccc(Cl)c(F)c3)[nH]2)sc1CO (single isomer, unassigned) [Compound 41], the IC50 ([3]; Human immunodeficiency virus 1, TZM-bl, read-out: IC50 (μM) ± S.D., subtype C, NIH # 11312, ENV ZM249M.PL1) is reported as 1 µM, the CC50 (TZM-bl cells) is reported as at least 33 µM and the IC50 (HIV-1 Integrase) is reported as over 100 µM.
Cc1ccc(-c2ccc(C(=O)NC(CN)c3ncc(CO)s3)[nH]2)cc1F (single isomer, unassigned) [Compound 99] showed an IC50 ([3]; Human immunodeficiency virus 1, TZM-bl, read-out: IC50 (μM) ± S.D., subtype A, ENV KNH1144) of 1.1 ± 0.2 µM, an IC50 ([3]; subtype A, ENV BG505-T332N, read-out: IC50 (μM) ± S.D.) of 0.99 ± 0.1 µM and a CC50 (TZM-bl cells) of 38.8 ± 0.8 µM.
In the case of CNCC(NC(=O)c1ccc(-c2ccc(Cl)c(F)c2)[nH]1)c1nc(C)c(CO)s1 (single isomer, unassigned) [Compound 56], the IC50 [1] is reported as 1.6 ± 0.6 µM and the CC50 at 3 days [2] is reported as about 21 µM.
NCC(NC(=O)c1ccc(-c2ccc(Cl)cc2)[nH]1)c1ncc(CO)s1 (single isomer, unassigned) [Compound 104] showed an IC50 [1] of 1.3 ± 0.1 µM and a CC50 at 3 days [2] of 38 ± 1.5 µM.
Work on Cc1ccc(-c2ccc(C(=O)NC(CN(C)C)c3nc(C)c(CO)s3)[nH]2)cc1F (single isomer, unassigned) [Compound 64] yielded an IC50 [1] of about 40 µM and a CC50 at 3 days [2] of about 40 µM.
Work on CNCC(NC(=O)c1ccc(-c2ccc(C)c(F)c2)[nH]1)c1ncc(CO)s1 (single isomer, unassigned) [Compound 118] yielded an IC50 [1] of 2 ± 0.3 µM and a CC50 at 3 days [2] of 21 ± 0.8 µM.
With NCC(NC(=O)c1ccc(-c2ccc(Cl)c(F)c2)[nH]1)c1ncc(CO)s1 (single isomer, unassigned) [Compound 90] the CC50 (TZM-bl cells) was 37.4 ± 0.3 µM and the IC50 (HIV-1 Integrase) was over 100 µM.
Cc1nc(C(NC(=O)c2ccc(-c3ccc(Cl)cc3)[nH]2)C(C)(C)N)sc1CO (single isomer, unassigned) [Compound 109] showed an IC50 [1, 7] of 1.4 ± 0.5 µM and a CC50 at 3 days [2] of 22.1 ± 1.8 µM.
Work on Cc1nc(C(NC(=O)C(=O)Nc2ccc(Cl)cc2)C2CCCCN2)sc1CO (stereo not drawn) [NBD-09027] yielded a CC50 (MT-2 cells) of over 108 µM, an IC50 [4, 9] of 35.8 ± 1.2 µM and an IC50 [4, 10] of 12.7 ± 0.7 µM. It also gave an IC50 [4, 11] of 8.6 ± 0.9 µM, an IC50 ([4]; read-out: IC50 (μm), primary isolate 93IN101, subtype C, co-receptor R5) of over 87 µM and an IC50 [4, 12] of over 43.5 µM. It also gave an IC50 ([4]; read-out: IC50 (μm), primary isolate BCF02, (Group 0), co-receptor R5) of about 87 µM, an IC50 [4, 13] of 8.5 ± 0.8 µM and an IC50 [5, 14] of 4.4 ± 1.1 µM. For the same compound, the IC50 [5, 15] was 5.8 ± 0.3 µM, the IC50 ([5]; laboratory strain IIIB, subtype B, MT-2, co-receptor X4) was 4.7 ± 0.6 µM and the IC50 [5, 16] was 4 µM. It also gave an IC50 [5, 17] of 5.7 ± 0.9 µM, an IC50 [5, 18] of 14.7 ± 2.3 µM and a CC50 (PBMC) of over 160 µM.
Work on NBD-556 yielded a CC50 (MT-2 cells) of over 280 µM, an IC50 ([4]; read-out: IC50 (μm), laboratory strain 89.6, subtype B, co-receptor R5X4) of 4.8 ± 1 µM and an IC50 [4, 9] of at least 118 µM. It also gave an IC50 [4, 10] of 48.9 ± 7.3 µM, an IC50 [4, 11] of 48 ± 1.65 µM and an IC50 [4, 12] of 57.2 ± 8.7 µM. It also gave an IC50 ([4]; read-out: IC50 (μm), primary isolate 93TH060, subtype E, co-receptor R5) of over 45 µM, an IC50 [4, 13] of 19.5 ± 2.3 µM and an IC50 [5, 14] of 58 ± 14.3 µM. For the same compound, the IC50 [5, 15] was 11 µM, the IC50 [5, 16] was 15.9 ± 1.6 µM and the IC50 ([5]; laboratory strain RF, subtype B, MT-2, co-receptor R5X4) was 18.7 ± 1.3 µM. The IC50 [5, 17] was at least 118 µM, the IC50 [5, 18] was over 59 µM and the CC50 (PBMC) was over 280 µM. For the same compound, the IC50 (HIV-1 Integrase) was over 200 µM.
Cc1nc(C(CN(C)C)NC(=O)c2ccc(-c3ccc(Cl)cc3)[nH]2)sc1CO (single isomer, unassigned) [Compound 62] showed an IC50 [1, 7] of 22 ± 3.8 µM and a CC50 at 3 days [2] of over 40 µM.
Cc1ccc(-c2ccc(C(=O)NC(CCN)c3nc(C)c(CO)s3)[nH]2)cc1F (single isomer, unassigned) [Compound 84] gave an IC50 [1] of 18.2 ± 2.6 µM and a CC50 at 3 days [2] of 47 ± 0.6 µM.
Compound Cc1ccc(-c2ccc(C(=O)NC(c3nc(C)c(CO)s3)C(C)(C)N)[nH]2)cc1F (single isomer, unassigned) [Compound 113] has an IC50 [1] of 1.1 ± 0.1 µM and a CC50 at 3 days [2] of 17.1 ± 0.6 µM.
In the case of Cc1nc(C(NC(=O)c2ccc(-c3ccc(Cl)c(F)c3)[nH]2)C(C)(C)N)sc1CO (single isomer, unassigned) [Compound 111], the IC50 [1, 7] is reported as 0.44 ± 0.03 µM and the CC50 at 3 days [2] is reported as 14 ± 0.4 µM.
In the case of COc1ccnc2[nH]cc(C(=O)C(=O)N3CCN(C(=O)c4ccccc4)C[C@H]3C)c12 [BMS-378806], the IC50 [6] is reported as 0.014 µM.
CNCCC(NC(=O)c1ccc(-c2ccc(Cl)c(F)c2)[nH]1)c1nc(C)c(CO)s1 (single isomer, unassigned) [Compound 80] gave an IC50 [1] of 9.1 ± 1.1 µM and a CC50 at 3 days [2] of 22.3 ± 0.6 µM.
Compound Cc1cc(C(=O)NC(CN)c2nc(C)c(CO)s2)[nH]c1-c1ccc(Cl)cc1 (single isomer, unassigned) [Compound 97] has a CC50 at 3 days [2] of 5.2 ± 0.3 µM.
Work on Cc1nc(C(NC(=O)c2ccc(-c3ccc(Cl)cc3)[nH]2)C2CCCCN2)sc1CCO (single isomer, unassigned) [Compound 28] yielded a CC50 at 3 days [2] of 17.3 ± 0.1 µM.
NCC(NC(=O)c1ccc(-c2ccc(Cl)c(F)c2)[nH]1)c1ncc(CO)s1 (single isomer, unassigned) [Compound 101] showed an IC50 [1] of 0.57 ± 0.01 µM and a CC50 at 3 days [2] of 30.8 ± 1.9 µM.
